Laboratory results as given in patent US7868135B2, “Compositions of lipopeptide antibiotic derivatives and methods of use thereof” (priority 2003, dated 2011).
Marks after values point to notes of the source that are not given here. Starred links: 1 amine or outer side, 2 acyl side, 3 side chain; linkers in the order of their positions; H or OH if unused. Positions of bridges follow the written chain, without caps; N, C: chain ends. Non-standard residues stand in square brackets, D forms with d. Residues, ends and D or L forms follow the SMILES beside them. ξ: configuration not given here. *: point of attachment. X25 = CC(NC(=O)[C@@H]1CCC(=O)N1)C(N[*:1])C(=O)[*:2]; X18 = CC(NC(=O)/C=C/c1ccco1)C(N[*:1])C(=O)[*:2]; Propanoyl(3-SO2Ph) = O=C(CCS(=O)(=O)c1ccccc1)*; ξAbu(βξ-NH2) = CC(N[*:3])C(N[*:1])C(=O)[*:2]; Phac(3-amino) = O=C(Cc1cccc(N[*:1])c1)[*:2]; ξAbu(3ξ-NH-βAla) = CC(NC(=O)CCN)C(N)C(=O)O; X4 = CNCC(=O)NC(C)C(N[*:1])C(=O)[*:2]; Pentadecanoyl = CCCCCCCCCCCCCCC(=O)*; ξAsp(βξ-Me) = CC(C(=O)O)C(N)C(=O)O; X13 = O=C(CCCCCCCCCCOc1ccccc1)*; ξAbu(3ξ-NH2) = CC(N)C(N)C(=O)O; X32 = CC(C)CCCCCC/C=C\C(=O)*; 12Ado = NCCCCCCCCCCCC(=O)O; Decanoyl = CCCCCCCCCC(=O)*; Octanoyl = CCCCCCCC(=O)*; Pip = O=C(O)[CH]1CCCCN1; Hexanoyl = CCCCCC(=O)*; ξD = NC(CC(=O)O)C(=O)O; ξPip = O=C(O)C1CCCCN1; ξV = CC(C)C(N)C(=O)O; ξP = O=C(O)C1CCCN1

System: Staphylococcus aureus (MSSA)
Conditions: 24 h
Outline: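 Broth microdilution MIC per NCCLS M7-A6 with doubling serial dilutions, in cation-adjusted Mueller-Hinton broth supplemented with 0.625 mM calcium.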

Compound | MIC [µg/mL]
CCCCCCCCCCCCCCC(=O)NC(CC(=O)O)C(=O)NC1C(=O)N2CCCCC2C(=O)NC(C(C)C(=O)O)C(=O)NC(CC(=O)O)C(=O)NCC(=O)NC(CC(=O)O)C(=O)NCC(=O)NC(C(C)NC(=O)CCCCCCCCCCOc2ccccc2)C(=O)NC(C(C)C)C(=O)N2CCCC2C(=O)NC1C (stereo not drawn) [Compound 348, C15-Amphomycin-9-(11-Phenoxyundecanoyl)] (Pentadecanoyl-D[ξAbu(βξ-NH2)][Pip][ξAsp(βξ-Me)]DGDG[ξAbu(βξ-NH2)](X13)VP; lactam 2-C; configuration not given here) | >64
CCCCCCCCCCCCCCC(=O)NC(CC(=O)O)C(=O)NC1C(=O)N2CCCCC2C(=O)NC(C(C)C(=O)O)C(=O)NC(CC(=O)O)C(=O)NCC(=O)NC(CC(=O)O)C(=O)NCC(=O)NC(C(C)NC(=O)/C=C/c2ccco2)C(=O)NC(C(C)C)C(=O)N2CCCC2C(=O)NC1C (stereo not drawn) [Compound 349, C15-Amphomycin-9-(3-Furan-2-yl-Acryloyl)] (Pentadecanoyl-D[ξAbu(βξ-NH2)][Pip][ξAsp(βξ-Me)]DGDG[X18]VP; lactam 2-C; configuration not given here) | 64
CCCCCCCCCCCCCCC(=O)NC(CC(=O)O)C(=O)NC1C(=O)N2CCCCC2C(=O)NC(C(C)C(=O)O)C(=O)NC(CC(=O)O)C(=O)NCC(=O)NC(CC(=O)O)C(=O)NCC(=O)NC(C(C)NC(=O)CCS(=O)(=O)c2ccccc2)C(=O)NC(C(C)C)C(=O)N2CCCC2C(=O)NC1C (stereo not drawn) [Compound 350, C15-Amphomycin-9-(3-(Benzenesulfonyl)Propionoyl)] (Pentadecanoyl-D[ξAbu(βξ-NH2)][Pip][ξAsp(βξ-Me)]DGDG[ξAbu(βξ-NH2)](Propanoyl(3-SO2Ph))VP; lactam 2-C; configuration not given here) | 64
CCCCCCCCCCCCCCC(=O)NC(CC(=O)O)C(=O)NC1C(=O)N2CCCCC2C(=O)NC(C(C)C(=O)O)C(=O)NC(CC(=O)O)C(=O)NCC(=O)NC(CC(=O)O)C(=O)NCC(=O)NC(C(C)NC(=O)CCC(=O)O)C(=O)NC(C(C)C)C(=O)N2CCCC2C(=O)NC1C (centres unmarked) [Compound 352, C15-Amphomycin-9-Suc] | >64
CCCCCCCCCCCCCCC(=O)NC(CC(=O)O)C(=O)NC1C(=O)N2CCCCC2C(=O)NC(C(C)C(=O)O)C(=O)NC(CC(=O)O)C(=O)NCC(=O)NC(CC(=O)O)C(=O)NCC(=O)NC(C(C)NC(=O)[C@@H]2CCCN2C(=O)[C@@H](N)CCCCN)C(=O)NC(C(C)C)C(=O)N2CCCC2C(=O)NC1C (some centres unmarked) [Compound 353, C15-Amphomycin-9-Pro-Lys] | >64
CC(C)C1NC(=O)C(C(C)NC(=O)CCN)NC(=O)CNC(=O)C(CC(=O)O)NC(=O)CNC(=O)C(CC(=O)O)NC(=O)C(C(C)C(=O)O)NC(=O)C2CCCCN2C(=O)C(NC(=O)C(N)CC(=O)O)C(C)NC(=O)C2CCCN2C1=O (stereo not drawn) [Compound 355, Amphomycin-9-(β-Ala)] (H-D[ξAbu(βξ-NH2)][Pip][ξAsp(βξ-Me)]DGDG[ξAbu(3ξ-NH-βAla)]VP; lactam 2-C; configuration not given here) | >64
CNCC(=O)NC(C)C1NC(=O)CNC(=O)C(CC(=O)O)NC(=O)CNC(=O)C(CC(=O)O)NC(=O)C(C(C)C(=O)O)NC(=O)C2CCCCN2C(=O)C(NC(=O)C(N)CC(=O)O)C(C)NC(=O)C2CCCN2C(=O)C(C(C)C)NC1=O (stereo not drawn) [Compound 356, Amphomycin-9-Sar] (H-D[ξAbu(βξ-NH2)][Pip][ξAsp(βξ-Me)]DGDG[X4]VP; lactam 2-C; configuration not given here) | >64
CCCCCC(=O)NCC(=O)NC(CC(=O)O)C(=O)NC1C(=O)N2CCCCC2C(=O)NC(C(C)C(=O)O)C(=O)NC(CC(=O)O)C(=O)NCC(=O)NC(CC(=O)O)C(=O)NCC(=O)NC(C(C)N)C(=O)NC(C(C)C)C(=O)N2CCCC2C(=O)NC1C (stereo not drawn) [Compound 358, C6-Gly-Amphomycin] (Hexanoyl-GD[ξAbu(βξ-NH2)][Pip][ξAsp(βξ-Me)]DGDG[ξAbu(3ξ-NH2)]VP; lactam 3-C; configuration not given here) | >64
CCCCCCCC(=O)NCC(=O)NC(CC(=O)O)C(=O)NC1C(=O)N2CCCCC2C(=O)NC(C(C)C(=O)O)C(=O)NC(CC(=O)O)C(=O)NCC(=O)NC(CC(=O)O)C(=O)NCC(=O)NC(C(C)N)C(=O)NC(C(C)C)C(=O)N2CCCC2C(=O)NC1C (stereo not drawn) [Compound 359, C8-Gly-Amphomycin] (Octanoyl-GD[ξAbu(βξ-NH2)][Pip][ξAsp(βξ-Me)]DGDG[ξAbu(3ξ-NH2)]VP; lactam 3-C; configuration not given here) | >64
CCCCCCCCCC(=O)NCC(=O)NC(CC(=O)O)C(=O)NC1C(=O)N2CCCCC2C(=O)NC(C(C)C(=O)O)C(=O)NC(CC(=O)O)C(=O)NCC(=O)NC(CC(=O)O)C(=O)NCC(=O)NC(C(C)N)C(=O)NC(C(C)C)C(=O)N2CCCC2C(=O)NC1C (stereo not drawn) [Compound 360, C10-Gly-Amphomycin] (Decanoyl-GD[ξAbu(βξ-NH2)][Pip][ξAsp(βξ-Me)]DGDG[ξAbu(3ξ-NH2)]VP; lactam 3-C; configuration not given here) | >64
CCCCCCCC(=O)Nc1cccc(CC(=O)NC(CC(=O)O)C(=O)NC2C(=O)N3CCCCC3C(=O)NC(C(C)C(=O)O)C(=O)NC(CC(=O)O)C(=O)NCC(=O)NC(CC(=O)O)C(=O)NCC(=O)NC(C(C)N)C(=O)NC(C(C)C)C(=O)N3CCCC3C(=O)NC2C)c1 (stereo not drawn) [Compound 361, C8-(M-Apa)-Amphomycin] (Octanoyl-[Phac(3-amino)]D[ξAbu(βξ-NH2)][Pip][ξAsp(βξ-Me)]DGDG[ξAbu(3ξ-NH2)]VP; lactam 3-C; configuration not given here) | >64
CC(C)CCCCCC/C=C\C(=O)NC(CC(=O)O)C(=O)NC1C(=O)N2CCCCC2C(=O)NC(C(C)C(=O)O)C(=O)NC(CC(=O)O)C(=O)NCC(=O)NC(CC(=O)O)C(=O)NCC(=O)NC(C(C)N)C(=O)NC(C(C)C)C(=O)N2CCCC2C(=O)NC1C (stereo not drawn) [Compound 364, (10-Methyl-Undec-2-Enoyl)-Amphomycin] (X32-D[ξAbu(βξ-NH2)][Pip][ξAsp(βξ-Me)]DGDG[ξAbu(3ξ-NH2)]VP; lactam 2-C; configuration not given here) | 4 to 8
CCCCCCCCCCCCCCC(=O)NC(CC(=O)O)C(=O)NC1C(=O)N2CCCCC2C(=O)NC(C(C)C(=O)O)C(=O)NC(CC(=O)O)C(=O)NCC(=O)NC(CC(=O)O)C(=O)NCC(=O)NC(C(C)NC(=O)[C@@H]2CCC(=O)N2)C(=O)NC(C(C)C)C(=O)N2CCCC2C(=O)NC1C (stereo partly drawn) [Compound 373] (Pentadecanoyl-[ξD][ξAbu(βξ-NH2)][ξPip][ξAsp(βξ-Me)][ξD]G[ξD]G[X25][ξV][ξP]; lactam 2-C) | >64
CC(=O)NCCCCCCCCCCCC(=O)NC(CC(=O)O)C(=O)NC1C(=O)N2CCCCC2C(=O)NC(C(C)C(=O)O)C(=O)NC(CC(=O)O)C(=O)NCC(=O)NC(CC(=O)O)C(=O)NCC(=O)NC(C(C)N)C(=O)NC(C(C)C)C(=O)N2CCCC2C(=O)NC1C (stereo not drawn) [Compound 374, (12-Acetylaminododecanoyl)-Amphomycin] (Ac-[12Ado]D[ξAbu(βξ-NH2)][Pip][ξAsp(βξ-Me)]DGDG[ξAbu(3ξ-NH2)]VP; lactam 3-C; configuration not given here; N-terminus assumed) | >64
CC(C)C1NC(=O)C(C(C)N)NC(=O)CNC(=O)C(CC(=O)O)NC(=O)CNC(=O)C(CC(=O)O)NC(=O)C(C(C)C(=O)O)NC(=O)C2CCCCN2C(=O)C(NC(=O)C(CC(=O)O)NC(=O)CCCCCCCCCCCN)C(C)NC(=O)C2CCCN2C1=O (stereo not drawn) [Compound 375, (12-Aminododecoyl)-Amphomycin] (H-[12Ado]D[ξAbu(βξ-NH2)][Pip][ξAsp(βξ-Me)]DGDG[ξAbu(3ξ-NH2)]VP; lactam 3-C; configuration not given here) | >64

Same assay, conditions: S. aureus (MSSA), CAMHB supplemented with 0.625 mM calcium, 24 hours at about 37° C.; a range = compound tested multiple times

Compound | MIC
CCCCCCCCCCCCCCC(=O)NC(CC(=O)O)C(=O)NC1C(=O)N2CCCCC2C(=O)NC(C(C)C(=O)O)C(=O)NC(CC(=O)O)C(=O)NCC(=O)NC(CC(=O)O)C(=O)NCC(=O)NC(C(C)NC(=O)CCCc2cc3ccc4cccc5ccc(c2)c3c45)C(=O)NC(C(C)C)C(=O)N2CCCC2C(=O)NC1C (centres unmarked) [Compound 351, C15-Amphomycin-9-(4-(Pyren-2-yl)Butyroyl)] | >64 µg/mL
(2-Dodecanoylamino-Thiazol-4-yl)Acetyl-Amphomycin [Compound 337] | 0.25 to 1 µg/mL
(12-Methyl-Tetradec-2-Enoyl)-Aspartocin-9-Sar [Compound 371] | 0.5 µg/mL
C12-Amphomycin-9-gDab [Compound 138] | 138/32 μg/mL
C13-Amphomycin-9-gDab [Compound 135] | 135/8 μg/mL
C14-Amphomycin-9-gDab [Compound 139] | 139/4 μg/mL
C15-Amphomycin-9-(Carbamoyl-Leu) [Compound 204] | 16 µg/mL
C17-Amphomycin-Gly-Lys [Compound 142] | 142/32 μg/mL
CH3—(CH2)7—NH—C(═O)-(M-Phenylacetyl)-Amphomycin [Compound 306] | 16 µg/mL
CH3—(CH2)7—NH—C(═O)-(p-Phenylacetyl)-Amphomycin [Compound 288] | 16 µg/mL
CH3—(CH2)10—NH—C(═O)-(M-Phenylacetyl)-Amphomycin [Compound 362] | 0.5 µg/mL
CH3—(CH2)10—NH—C(═O)-(p-Phenylacetyl)-Amphomycin [Compound 290] | 1 µg/mL
CH3—(CH2)13—NH—C(═O)-(M-Phenylacetyl)-Amphomycin [Compound 292] | 1 µg/mL
CH3—(CH2)13—NH—C(═O)-(p-Phenylacetyl)-Amphomycin [Compound 289] | 2 µg/mL
CH3—(CH2)15—NH—C(═O)-(M-Phenylacetyl)-Amphomycin [Compound 302] | 4 µg/mL
CH3—(CH2)15—NH—C(═O)-(p-Phenylacetyl)-Amphomycin [Compound 287] | 4 µg/mL
Lys-Gly-Amphomycin-9-C13 [Compound 332] | >64 µg/mL
β-Isomer of (8-Dodecyloxy-Quinoline-2-Carbonyl)-Amphomycin [Compound 340] | 4 µg/mL
β-Isomer of CH3—(CH2)10—NH—C(═O)-(GABA)-Amphomycin [Compound 330] | >64^† μg/mL
β-Isomer of CH3—(CH2)13—NH—C(═O)-Amphomycin [Compound 329] | 4^† μg/mL
